The assay has as its target T1, Aromatase (Homo sapiens, UniProt P11511).
T1 sequence (P11511 whole entry): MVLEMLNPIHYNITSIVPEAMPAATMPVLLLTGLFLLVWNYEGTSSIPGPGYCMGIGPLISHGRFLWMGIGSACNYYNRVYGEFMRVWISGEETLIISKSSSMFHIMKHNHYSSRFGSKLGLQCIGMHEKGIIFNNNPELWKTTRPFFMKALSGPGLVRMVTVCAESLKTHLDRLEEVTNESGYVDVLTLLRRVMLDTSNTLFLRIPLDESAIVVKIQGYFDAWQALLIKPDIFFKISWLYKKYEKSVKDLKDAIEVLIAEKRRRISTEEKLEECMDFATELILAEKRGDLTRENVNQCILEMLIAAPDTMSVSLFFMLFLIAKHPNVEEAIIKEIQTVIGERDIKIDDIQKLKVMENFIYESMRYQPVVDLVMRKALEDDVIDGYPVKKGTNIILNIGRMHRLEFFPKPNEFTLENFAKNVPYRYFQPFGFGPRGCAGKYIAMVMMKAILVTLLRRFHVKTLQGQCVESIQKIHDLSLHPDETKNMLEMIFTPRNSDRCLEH
Briefly: Inhibition of binding to human Placental Cytochrome P450 19A1.
Take `C[C@]12CCC3C(CCC4=CC(=O)[C@H]5CC[C@]43C5)C1CCC2=O` (some centres undefined): the affinity, expressed as Ki, was 70 nM.

`C[C@]12CCC3C(CCC4=CC(=O)[C@H]5C[C@H](O)[C@]43C5)C1CCC2=O` (single isomer, unassigned): the Ki – broadly, the dissociation constant of the complex between target and ligand, obtained from inhibition or displacement – was 926 nM.

The compound `C[C@]12CCC3C(CCC4=CC(=O)[C@H]5C[C@@H](O)[C@]43C5)C1CCC2=O` (single isomer, unassigned) yielded a Ki of 870 nM.

Compound `C[C@]12CCC3C(CCC4=CC(=O)CC[C@@]43C(O)CBr)C1CCC2=O` (single isomer, unassigned; 11a) had a Ki of 27 nM.

Values taken from ChEMBL document CHEMBL1125704, “Novel time-dependent inhibitors of human placental aromatase” (J Med Chem, 1991).
